Data published in US20090028830A1, “Preparation of multipotent stem cells and the use thereof” (priority 2005, published 2009).

Biological target: T1, PKCβ2 (Homo sapiens, UniProt P05771)
T1 construct: mononucleated cells constitutively expressed PKC isoforms α, β1, β2, γ, l/λ and ζ; endogenous in cells; host or cells: mononucleated cells (monocytes)
Assay: PKC isoform activation/translocation in mononucleated cells during P-stem cell differentiation
Type: cell-based
Settings: mononucleated cells pre-treated with Go6976 (1 μM) 30 minutes at 37° C., then Bryostatin-1 (10 nM) at designated time intervals; combined treatment; FIG. 4
Description: The constitutively expressed PKC isoforms in mononucleated cells are detected by Western Blot analysis with each PKC isoform-specific antibodies. […] In the FIG. 1, Mo and pc represents mononucleated cell and PKC positive cell lysate, respectively. To examine the specific activation of PKC isoform(s) iii the differentiation of P-stem cells, mononucleated cells are pre-treated with Go6976 (1 μM) for 30 minutes at 37° C. and then incubated with Brvostatin-1 (10 nM) at designated time intervals. […] Therefore, any substances stimulating the activation of PKCβ2 are capable of inducing the differentiation of P-stem cells.

T1 sequence (P05771 1-673 isoform P05771-2): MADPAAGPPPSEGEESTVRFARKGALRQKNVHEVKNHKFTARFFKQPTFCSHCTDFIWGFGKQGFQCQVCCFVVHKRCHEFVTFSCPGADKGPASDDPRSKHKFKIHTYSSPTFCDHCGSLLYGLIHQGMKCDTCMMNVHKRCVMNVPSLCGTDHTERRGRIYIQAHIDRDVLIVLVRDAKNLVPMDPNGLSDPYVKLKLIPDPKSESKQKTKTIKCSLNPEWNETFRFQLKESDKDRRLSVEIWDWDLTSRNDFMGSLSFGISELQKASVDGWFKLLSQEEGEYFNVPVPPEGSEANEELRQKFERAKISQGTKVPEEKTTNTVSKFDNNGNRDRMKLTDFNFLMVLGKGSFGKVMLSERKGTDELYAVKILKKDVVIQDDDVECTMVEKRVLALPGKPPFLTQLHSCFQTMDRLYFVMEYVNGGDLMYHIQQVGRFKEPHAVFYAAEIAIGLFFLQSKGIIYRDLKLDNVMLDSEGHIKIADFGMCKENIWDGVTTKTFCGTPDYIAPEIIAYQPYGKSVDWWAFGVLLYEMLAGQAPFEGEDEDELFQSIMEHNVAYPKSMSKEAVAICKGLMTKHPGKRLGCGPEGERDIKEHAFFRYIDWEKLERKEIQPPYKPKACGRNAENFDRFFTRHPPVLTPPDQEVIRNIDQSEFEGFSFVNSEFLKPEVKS

SMILES	specific activation of PKC isoform(s) (translocation from cytosol to plasma membrane)
Cn1c2ccccc2c2c3c(c4c5ccccc5n(CCC#N)c4c21)CNC3=O [Go6976]	only PKCβ2 is activated and translocates from cytosol to plasma membrane
CCC/C=C/C=C/C(=O)O[C@H]1/C(=C/C(=O)OC)C[C@H]2C[C@H]([C@@H](C)O)OC(=O)C[C@H](O)C[C@@H]3C[C@H](OC(C)=O)C(C)(C)[C@](O)(C[C@@H]4C/C(=C/C(=O)OC)C[C@H](/C=C/C(C)(C)[C@]1(O)O2)O4)O3 [Brvostatin-1, Bryostatin-1]	only PKCβ2 is activated and translocates from cytosol to plasma membrane
